Laboratory results published in patent US20220073557A1, “FLUORINATED BILE ACIDS” (NZP UK LIMITED, priority 2018, published 2022).
Structures can show the parent of a compound that is named as a salt.

Key:
[1] = tested on: sporadic PD patient fibroblasts; experiment: Cellular ATP levels (ATPlite, normalised to CyQUANT DNA content) in sporadic PD patient fibroblasts; type: cell-based; conditions: Homo sapiens, Fibroblast, 24 h; for activity at 60 pM: read-out: Cellular ATP levels Bottom (% of vehicle treated); for activity at 0.3 µM: read-out: Cellular ATP levels Top (% of vehicle treated)
Description: (§1) Fibroblasts were cultured in DMEM (Invitrogen) and routinely subcultured every 3-5 days using trypsin to dissociate them.
The ATP protocol is generally as described in Mortiboys et al, “Mitochondrial function and morphology are impaired in parkin-mutant fibroblasts”, Ann Neurol. 2008 November; 64(5):555-65. Briefly, fibroblasts were cultured as and plated into white 384 well plates with 5000 cells per well in 50 μl of media volume. The plates are left overnight in an incubator to allow the fibroblasts to adhere to the plate surface. The following morning the Glucose based medium is replaced with 25 μl of Galactose based medium. The compounds are added to the plates using a ECHO 550 liquid handling system. The wells were dosed to provide an 8-point concentration range of 0.06 nM-300 nM of compound. After dosing the wells are topped up with a further 25 μl of Galactose based medium and then left in an incubator for 24 hours. Following this incubation the medium is removed from the plate and the wells are washed twice with sterile PBS. The wells are filled with 25 μl of Sterile PBS followed by 12.5 μl of Lysis solution from the ATPlite™ Luminescence ATP detection assay system (Perkin Elmer), including 16 cell free wells to use as blank controls. The plate is then placed on a rotary shaker for 5 mins at 700 rpm. Following the shaking 12.5 μl of ATP substrate solution (Perkin Elmer) is added to each well and a further 5 min of shaking. The plate is then placed in darkness for 10 minutes prior to reading. Using a PHERAStar® plate reader, luminescence intensity is recorded. Following the ATP assay the plates are immediately assayed for DNA content in a CyQUANT® assay.
Immediately following The ATP assay DNA content is assessed with the CyQUANT® NF Cell Proliferation Assay Kit (ThermoFisher). CyQUANT® buffer is prepared immediately before the assay and is comprised of 1 ul CyQUANT® dye per ml×1 HBSS solution. 12.5 ul of CyQUANT® buffer is added to each well. Plate left in incubator for 1 hour then read on a PHERAStar® Plate reader with excitation at 497 nm and emission at 520 nm. ATP Quantification for each well is determined using the following formula: […]
(§2) After the assays had been repeated in triplicate per line and compound the data was then inputted into Graph pad Prism 7 software suite where a dose response curve is generated using the default “[Agonist] vs response (three parameters)” equation.
(§3) From this EC50 values, lowest response and maximal response were taken and used to calculate the Geometric mean between the 5 different lines assessed.
Cellular ATP levels were measured in fibroblasts from 6 (Table 3) or 3 (Table 4) patients with sporadic Parkinson's disease when treated with Compounds of the invention or Comparator compounds. The results are shown in Tables 3 and 4, where “Bottom”=max response with lowest dose of compound (0.06 nM) and “top”=max response with highest dose of compound (300 nM).

[2] = tested on: sporadic PD patient fibroblasts; experiment: Mitochondrial membrane potential (MMP, TMRM) in sporadic PD patient fibroblasts; type: cell-based; conditions: Homo sapiens, Fibroblast, 24 h; for activity at 60 pM: read-out: MMP Bottom (% of vehicle treated); for activity at 0.3 µM: read-out: MMP Top (% of vehicle treated)
Description: as §1
Fibroblasts were cultured and plated into a Griener black 384 pClear® plate at 10000 cells per well in 50 μl of media volume. The plates are left overnight in an incubator to allow the fibroblasts to adhere to the plate surface. The following morning the Glucose based medium is replaced with 25 μl of Galactose based media. The plates were then dosed with the compounds using an ECHO® 550 liquid handling system. The wells were dosed to provide an 8-point concentration range of 0.06 nM-300 nM of compound. After dosing the wells are topped up with a further 25 μl of Galactose based medium and then left in an incubator for 24 hours. After 24 hours, the medium is removed from the wells and replaced with 25 ul phenol free Minimal essential medium with 100 nM TMRM (Sigma) and 10 μM Hoechst Stain (Sigma). The plate is returned to the incubator for another hour after which the stain medium is removed and replaced with 25 ul Phenol free MEM. The plate is then imaged using an IN Cell high content microscope (GE Healthcare) with 10 fields of view per well in 2 channels, Cy3 excitation 542 nm, emission 604-64 nm; and the DAPI excitation 350 nm, emission 450-55 nm at 37° C. with CO2. After imaging the plate is disposed of and the images are Data mined using the INCell developer Toolkit (GE Healthcare).
as §2, §3
The mitochondrial membrane potential was measured in fibroblasts from 6 (Table 1) or 3 (Table 2) patients with sporadic Parkinson's disease when treated with Compounds of the invention or Comparator compounds. The results are shown in Tables 1 and 2, where “Bottom”=max response with lowest dose of compound (0.06 nM) and “top”=max response with highest dose of compound (300 nM).

[3] = read-out: Cellular ATP levels EC50 (nM)
[4] = 3 sporadic PD patient fibroblasts, read-out: Cellular ATP levels EC50
[5] = max response with highest dose (300 nM), 3 sporadic PD patient fibroblasts
[6] = max response with lowest dose (0.06 nM), 3 sporadic PD patient fibroblasts
[7] = 3 sporadic PD patient fibroblasts, read-out: MMP EC50
[8] = 6 sporadic PD patient fibroblasts, read-out: Cellular ATP levels EC50
[9] = max response with highest dose (300 nM), 6 sporadic PD patient fibroblasts
[10] = max response with lowest dose (0.06 nM), 6 sporadic PD patient fibroblasts
[11] = 6 sporadic PD patient fibroblasts, read-out: MMP EC50

SMILES	activity at 60 pM [1] [%]	EC50 [1, 3] [nM]	activity at 0.3 µM [1] [%]	activity at 60 pM [2] [%]	EC50 ([2]; read-out: MMP EC50 (nM)) [nM]	activity at 0.3 µM [2] [%]	also measured
C[C@H](CCC(=O)O)[C@H]1CC[C@H]2[C@@H]3[C@@H](O)C[C@@H]4C[C@H](O)C(F)(F)C[C@]4(C)[C@H]3CC[C@]12C [Compound 9, 2,2-difluoro-3α,7β-dihydroxy-5β-cholanic acid]	99	21.3	103	110	2.19	112	–
C[C@H](CCC(=O)N1CCC[C@H](C(=O)O)C1)[C@H]1CC[C@H]2[C@@H]3[C@@H](O)C[C@@H]4C[C@@H](O)C(F)(F)C[C@]4(C)[C@H]3CC[C@]12C [Compound 14, Sodium 1-(2,2-difluoro-3β,7β-dihydroxy-5β-cholan-24-oyl)-piperidine-3-carboxylate]	107	1.3	127	94.3	18.9	167	–
C[C@H](CCC(=O)NCC(=O)O)[C@H]1CCC2C3C(CC[C@@]21C)[C@@]1(C)CC(F)(F)[C@H](O)C[C@H]1C[C@@H]3O (stereo partly drawn) [Compound 17, Sodium N-(2,2-difluoro-3β,7β-dihydroxy-5β-cholan-24-amide)-methylcarboxylic acid]	101	17.2	132	88.9	128	152	–
C[C@H](CCC(=O)N(C)CCS(=O)(=O)O)[C@H]1CCC2C3C(CC[C@@]21C)[C@@]1(C)CC(F)(F)[C@H](O)C[C@H]1C[C@@H]3O (stereo partly drawn) [Compound 19, Sodium N-(methyl)-N-(2,2-difluoro-3β,7β-dihydroxy-5β-cholan-24-amide) ethylsulfonic acid]	98.8	8.9	122	95.9	104	143	–
C[C@H](CCC(=O)NCCCS(=O)(=O)O)[C@H]1CC[C@H]2[C@@H]3[C@@H](O)C[C@@H]4C[C@@H](O)C(F)(F)C[C@]4(C)[C@H]3CC[C@]12C [Compound 20, Sodium 3-(2,2-difluoro-3β,7β-dihydroxy-5β-cholan-24-oyl) amino-propanesulfonate]	102	34.7	122	99.8	17.7	147	–
C[C@H](CCC(=O)NCCOS(=O)(=O)O)[C@H]1CC[C@H]2[C@@H]3[C@@H](O)C[C@@H]4C[C@@H](O)C(F)(F)C[C@]4(C)[C@H]3CC[C@]12C [Compound 22, Sodium N-(2,2-difluoro-3β,7β-dihydroxy-5β-cholan-24-oyl)-2-aminoethyl sulfate]	95.9	6.2	116	99.3	45.4	146	–
C[C@H](CCC(=O)NCCS(C)(=O)=O)[C@H]1CC[C@H]2[C@@H]3[C@@H](O)C[C@@H]4C[C@@H](O)C(F)(F)C[C@]4(C)[C@H]3CC[C@]12C [Compound 27, N-(2,2-difluoro-3β,7β-dihydroxy-5β-cholan-24-oyl) 2-aminoethyl methyl sulfone]	–	–	–	–	–	–	EC50 [1, 4]: 16.6 nM; activity at 0.3 µM [1, 5]: 114%; activity at 60 pM [1, 6]: 101%; EC50 [2, 7]: 171 nM; activity at 0.3 µM [2, 5]: 159%; activity at 60 pM [2, 6]: 103%
C[C@H](CCC(=O)N1CCS(=O)(=O)CC1)[C@H]1CCC2C3C(CC[C@@]21C)[C@@]1(C)CC(F)(F)[C@H](O)C[C@H]1C[C@@H]3O (stereo partly drawn) [Compound 30, N-(2,2-difluoro-3β,7β-dihydroxy-5β-cholan-24-oyl)-thiomorpholine-dioxide]	–	–	–	–	–	–	EC50 [1, 4]: 4.2 nM; activity at 0.3 µM [1, 5]: 115%; activity at 60 pM [1, 6]: 96.7%; EC50 [2, 7]: 21 nM; activity at 0.3 µM [2, 5]: 156%; activity at 60 pM [2, 6]: 98.4%
C[C@H](CCC(=O)NC1CCCS(=O)(=O)C1)[C@H]1CC[C@H]2[C@@H]3[C@@H](O)C[C@@H]4C[C@@H](O)C(F)(F)C[C@]4(C)[C@H]3CC[C@]12C (stereo partly drawn) [Compound 31, N-(2,2-difluoro-3β,7β-dihydroxy-5β-cholan-24-oyl) 1,1-dioxidotetrahydro-2H-thiopyran-3-ylamine]	–	–	–	–	–	–	EC50 [1, 4]: 13.3 nM; activity at 0.3 µM [1, 5]: 133%; activity at 60 pM [1, 6]: 108%; EC50 [2, 7]: 5.5 nM; activity at 0.3 µM [2, 5]: 151%; activity at 60 pM [2, 6]: 99.6%
C[C@H](CCC(=O)O)[C@H]1CC[C@H]2[C@@H]3C(=O)C[C@@H]4CC(=O)C(F)(F)C[C@]4(C)[C@H]3CC[C@]12C [Compound E, 2,2-difluoro-3,7-dioxo-5β-cholanic acid, reference compound]	–	–	–	–	–	–	EC50 [1, 8]: 18.8 nM; activity at 0.3 µM [1, 9]: 136%; activity at 60 pM [1, 10]: 81.6%; EC50 [2, 11]: 23.3 nM; activity at 0.3 µM [2, 9]: 112%; activity at 60 pM [2, 10]: 105%
C[C@H](CCC(=O)O)[C@H]1CC[C@H]2[C@@H]3[C@@H](O)C[C@@H]4C[C@@H](O)C(F)=C[C@]4(C)[C@H]3CC[C@]12C [Compound F, 2-fluoro-3β,7β-dihydroxy-5β-chol-1-enic acid, reference compound]	–	–	–	–	–	–	EC50 [1, 8]: 1.91 nM; activity at 0.3 µM [1, 9]: 112%; activity at 60 pM [1, 10]: 99.9%; EC50 [2, 11]: 0.674 nM; activity at 0.3 µM [2, 9]: 108%; activity at 60 pM [2, 10]: 110%
C[C@H](CCC(=O)O)[C@H]1CC[C@H]2[C@@H]3C(=O)C[C@@H]4CC(=O)C(F)=C[C@]4(C)[C@H]3CC[C@]12C [Compound G, 2-fluoro-3,7-dioxo-5β-chol-1-enic acid, reference compound]	–	–	–	–	–	–	EC50 [1, 8]: 58.4 nM; activity at 0.3 µM [1, 9]: 92.7%; activity at 60 pM [1, 10]: 83.3%; EC50 [2, 11]: 282 nM; activity at 0.3 µM [2, 9]: 123%; activity at 60 pM [2, 10]: 103%
